From US12371454B2, “Cyclic peptide compound having Kras inhibitory action” (priority 2019, dated 2025)
Positions of bridges follow the written chain, without caps; N, C: chain ends. Non-standard residues stand in square brackets, D forms with d. Residues, ends and D or L forms follow the SMILES beside them. *: point of attachment. hPhe(3-Cl-4-CF3) = N[C@@H](CCc1ccc(C(F)(F)F)c(Cl)c1)C(=O)O; NMePhe(4-CF3) = CN[C@@H](Cc1ccc(C(F)(F)F)cc1)C(=O)O; 3Oxa8azabicyclo(3.2.1)octane = C1CC2COCC1N2*; NMePhe(4-Me) = CN[C@@H](Cc1ccc(C)cc1)C(=O)O; NMeAla(cPent) = CN[C@@H](CC1CCCC1)C(=O)O; NMeCha = CN[C@@H](CC1CCCCC1)C(=O)O; NMeChg = CN[C@H](C(=O)O)C1CCCCC1; NMeI = CC[C@H](C)[C@H](NC)C(=O)O; Gly(cBu) = N[C@H](C(=O)O)C1CCC1; N(CH2CH2)2CF2 = FC1(F)CCN(*)CC1; NMeD = CN[C@@H](CC(=O)O)C(=O)O; NMeL = CN[C@@H](CC(C)C)C(=O)O; NMeNva = CCC[C@H](NC)C(=O)O; NMeAbu = CC[C@H](NC)C(=O)O; NMeS = CN[C@@H](CO)C(=O)O; Morpholide = C1CN(*)CCO1; NMeA = CN[C@@H](C)C(=O)O; Pyrrolidide = C1CCN(*)C1; Ac5c = NC1(C(=O)O)CCCC1; Aze = O=C(O)[C@@H]1CCN1; Sar = CNCC(=O)O; Propyl = CCC*

Assays:
[1] = biological target: T1, Kras and SOS1 (biotin-tagged human Kras loaded with GDP, His-tagged human SOS1) (Homo sapiens, UniProt P01116, G12D); assay: Protein-protein interaction inhibition between Kras and SOS1 (KrasGl2D-SOS PPI) using AlphaScreen; assay type: binding; conditions: AlphaScreen; biotin-tagged human Kras loaded with GDP, His-tagged human SOS1; read-out: KRAS G12D-SOS PPI IC50
T1 construct: made in house; host or cells: E. coli (stated for Kras only)
T1 sequence (P01116 1-188 isoform P01116-2 G12D): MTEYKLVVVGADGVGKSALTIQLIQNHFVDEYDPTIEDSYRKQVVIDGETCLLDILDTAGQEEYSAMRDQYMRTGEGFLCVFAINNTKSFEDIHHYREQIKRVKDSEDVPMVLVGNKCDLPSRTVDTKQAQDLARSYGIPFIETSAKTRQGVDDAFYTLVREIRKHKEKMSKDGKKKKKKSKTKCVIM
Summary of the method: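 Donor beads (nickel) hold His-SOS1; acceptor beads (streptavidin) hold biotin-Kras bound to GDP. Signal measured at 520-620 nm following 680 nm excitation.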

[2] = tested on: Human pancreatic cancer cell line AsPC-1; assay: Measurement of AsPC-1 cell growth inhibition (AsPC-1 CGI); assay type: cell-based; conditions: 96 h
Summary of the method: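 AsPC-1 cells in 15% FBS RPMI-1640 were exposed to test compound for 96 hours at 37° C, with CellTiter-Glo as endpoint.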

Structure (SMILES)	IC50 [1]	IC50 [2]
CC[C@H](C)[C@@H]1NC(=O)[C@H](CC(C)C)N(C)C(=O)C[C@@H](C(=O)N(C)C)N(C)C(=O)[C@H]([C@@H](C)CC)N(C)C(=O)C2(CCCC2)NC(=O)[C@H](CC(=O)N2CCC(F)(F)CC2)N(C)C(=O)[C@H](CCc2ccc(C(F)(F)F)c(Cl)c2)NC(=O)CN(C)C(=O)[C@H](Cc2ccc(C)cc2)N(C)C(=O)[C@@H]2CCN2C(=O)[C@H](C)N(C)C1=O [Compound 1980] ([NMeL]I[NMeA][Aze][NMePhe(4-Me)][Sar][hPhe(3-Cl-4-CF3)][NMeD](N(CH2CH2)2CF2)[Ac5c][NMeI][NMeD]-NMe2; lactam N-11)	1.5 nM	100 to 500 nM
CCC[C@H]1C(=O)N[C@@H]([C@@H](C)CC)C(=O)N(C)CC(=O)N(C)CC(=O)N(C)[C@@H](Cc2ccc(C(F)(F)F)cc2)C(=O)N(C)CC(=O)N[C@@H](CCc2ccc(C(F)(F)F)c(Cl)c2)C(=O)N2CCC[C@H]2C(=O)NC2(CCCC2)C(=O)N(C)[C@@H](C2CCCCC2)C(=O)N(C)[C@H](C(=O)N2C3CCC2COC3)CC(=O)N1C [Compound 1983] ([NMeNva]I[Sar][Sar][NMePhe(4-CF3)][Sar][hPhe(3-Cl-4-CF3)]P[Ac5c][NMeChg][NMeD]-{3Oxa8azabicyclo(3.2.1)octane}; lactam N-11)	0.68 nM	20 to 50 nM
CCC[C@H]1C(=O)N[C@@H]([C@@H](C)CC)C(=O)N(C)CC(=O)N(C)CC(=O)N(C)[C@@H](Cc2ccc(C(F)(F)F)cc2)C(=O)N(C)CC(=O)N[C@@H](CCc2ccc(C(F)(F)F)c(Cl)c2)C(=O)N2CCC[C@H]2C(=O)NC2(CCCC2)C(=O)N(C)[C@@H](C2CCCCC2)C(=O)N(C)[C@H](C(=O)N2CCCC2)CC(=O)N1C [Compound 1984] ([NMeNva]I[Sar][Sar][NMePhe(4-CF3)][Sar][hPhe(3-Cl-4-CF3)]P[Ac5c][NMeChg][NMeD]-Pyrrolidide; lactam N-11)	0.38 nM	20 to 50 nM
CC(C)C[C@H]1C(=O)N[C@@H](C2CCC2)C(=O)N(C)CC(=O)N(C)CC(=O)N(C)[C@@H](CC2CCCCC2)C(=O)N(C)CC(=O)N[C@@H](CCc2ccc(C(F)(F)F)c(Cl)c2)C(=O)N2CCC[C@H]2C(=O)NC2(CCCC2)C(=O)N(C)[C@@H](C2CCCCC2)C(=O)N(C)[C@H](C(=O)N2CCCC2)CC(=O)N1C [Compound 1988] ([NMeL][Gly(cBu)][Sar][Sar][NMeCha][Sar][hPhe(3-Cl-4-CF3)]P[Ac5c][NMeChg][NMeD]-Pyrrolidide; lactam N-11)	0.69 nM	50 to 100 nM
CC[C@H](C)[C@@H]1NC(=O)[C@H](CC)N(C)C(=O)C[C@@H](C(=O)N2C3CCC2COC3)N(C)C(=O)[C@H](C2CCCCC2)N(C)C(=O)C2(CCCC2)NC(=O)[C@@H]2CCCN2C(=O)[C@H](CCc2ccc(C(F)(F)F)c(Cl)c2)NC(=O)CN(C)C(=O)[C@H](Cc2ccc(C(F)(F)F)cc2)N(C)C(=O)CN(C)C(=O)CN(C)C1=O [Compound 1993] ([NMeAbu]I[Sar][Sar][NMePhe(4-CF3)][Sar][hPhe(3-Cl-4-CF3)]P[Ac5c][NMeChg][NMeD]-{3Oxa8azabicyclo(3.2.1)octane}; lactam N-11)	0.64 nM	50 to 100 nM
CCC[C@H]1C(=O)N[C@@H]([C@@H](C)CC)C(=O)N(C)CC(=O)N(C)CC(=O)N(C)[C@@H](Cc2ccc(C)cc2)C(=O)N(C)CC(=O)N[C@@H](CCc2ccc(C(F)(F)F)c(Cl)c2)C(=O)N2CCC[C@H]2C(=O)NC2(CCCC2)C(=O)N(C)[C@@H](C2CCCCC2)C(=O)N(C)[C@H](C(=O)N2C3CCC2COC3)CC(=O)N1C [Compound 1994] ([NMeNva]I[Sar][Sar][NMePhe(4-Me)][Sar][hPhe(3-Cl-4-CF3)]P[Ac5c][NMeChg][NMeD]-{3Oxa8azabicyclo(3.2.1)octane}; lactam N-11)	0.58 nM	50 to 100 nM
CCC[C@H]1C(=O)N[C@@H]([C@@H](C)CC)C(=O)N(C)CC(=O)N(C)CC(=O)N(C)[C@@H](CC2CCCCC2)C(=O)N(C)CC(=O)N[C@@H](CCc2ccc(C(F)(F)F)c(Cl)c2)C(=O)N2CCC[C@H]2C(=O)NC2(CCCC2)C(=O)N(C)[C@@H](C2CCCCC2)C(=O)N(C)[C@H](C(=O)N2CCOCC2)CC(=O)N1C [Compound 1996] ([NMeNva]I[Sar][Sar][NMeCha][Sar][hPhe(3-Cl-4-CF3)]P[Ac5c][NMeChg][NMeD]-Morpholide; lactam N-11)	0.64 nM	20 to 50 nM
CCC[C@H]1C(=O)N[C@@H]([C@@H](C)CC)C(=O)N(C)CC(=O)N(C)CC(=O)N(C)[C@@H](CC2CCCC2)C(=O)N(C)CC(=O)N[C@@H](CCc2ccc(C(F)(F)F)c(Cl)c2)C(=O)N2CCC[C@H]2C(=O)NC2(CCCC2)C(=O)N(C)[C@@H](C2CCCCC2)C(=O)N(C)[C@H](C(=O)N2CCOCC2)CC(=O)N1C [Compound 1998] ([NMeNva]I[Sar][Sar][NMeAla(cPent)][Sar][hPhe(3-Cl-4-CF3)]P[Ac5c][NMeChg][NMeD]-Morpholide; lactam N-11)	0.75 nM	100 to 500 nM
CC[C@H](C)[C@@H]1NC(=O)[C@H](CC)N(C)C(=O)C[C@@H](C(=O)N2CCOCC2)N(C)C(=O)[C@H](C2CCCCC2)N(C)C(=O)C2(CCCC2)NC(=O)[C@@H]2CCCN2C(=O)[C@H](CCc2ccc(C(F)(F)F)c(Cl)c2)NC(=O)CN(C)C(=O)[C@H](CC2CCCC2)N(C)C(=O)CN(C)C(=O)CN(C)C1=O [Compound 1999] ([NMeAbu]I[Sar][Sar][NMeAla(cPent)][Sar][hPhe(3-Cl-4-CF3)]P[Ac5c][NMeChg][NMeD]-Morpholide; lactam N-11)	0.82 nM	100 to 500 nM
CCC[C@H]1C(=O)N[C@@H]([C@@H](C)CC)C(=O)N(C)CC(=O)N(C)CC(=O)N(C)[C@@H](Cc2ccc(C)cc2)C(=O)N(C)CC(=O)N[C@@H](CCc2ccc(C(F)(F)F)c(Cl)c2)C(=O)N2CCC[C@H]2C(=O)NC2(CCCC2)C(=O)N(C)[C@@H](C2CCCCC2)C(=O)N(C)[C@H](C(=O)N2CCCC2)CC(=O)N1C [Compound 2004] ([NMeNva]I[Sar][Sar][NMePhe(4-Me)][Sar][hPhe(3-Cl-4-CF3)]P[Ac5c][NMeChg][NMeD]-Pyrrolidide; lactam N-11)	0.33 nM	20 to 50 nM
CCCOC[C@H]1C(=O)N(C)CC(=O)N[C@@H](CCc2ccc(C(F)(F)F)c(Cl)c2)C(=O)N2CCC[C@H]2C(=O)NC2(CCCC2)C(=O)N(C)[C@@H](C2CCCCC2)C(=O)N(C)[C@H](C(=O)N2CCCC2)CC(=O)N(C)[C@@H](CCC)C(=O)N[C@@H]([C@@H](C)CC)C(=O)N(C)CC(=O)N(C)CC(=O)N1C [Compound 2005] ([NMeNva]I[Sar][Sar][NMeS](Propyl)[Sar][hPhe(3-Cl-4-CF3)]P[Ac5c][NMeChg][NMeD]-Pyrrolidide; lactam N-11)	0.64 nM	50 to 100 nM
CCCOC[C@H]1C(=O)N(C)CC(=O)N[C@@H](CCc2ccc(C(F)(F)F)c(Cl)c2)C(=O)N2CCC[C@H]2C(=O)NC2(CCCC2)C(=O)N(C)[C@@H](C2CCCCC2)C(=O)N(C)[C@H](C(=O)N2CCCC2)CC(=O)N(C)[C@@H](CC(C)C)C(=O)N[C@@H]([C@@H](C)CC)C(=O)N(C)CC(=O)N(C)CC(=O)N1C [Compound 2006] ([NMeL]I[Sar][Sar][NMeS](Propyl)[Sar][hPhe(3-Cl-4-CF3)]P[Ac5c][NMeChg][NMeD]-Pyrrolidide; lactam N-11)	0.62 nM	50 to 100 nM
